According to patent US11254958B1, “Metabolic engineering of E coli with thio-phosphate” (priority 2018, dated 2022):
“Also recorded” adds a separate entry of the source.

Columns and labels:
Type in all cases: cell-based
[1] = test system: E. coli K12 and JM109 strains; assay: Morphological changes by bright field microscopy
Procedure: (§1) E coli K12 bacteria were grown in high citrate minimal media with 5.4 g/L of thiophosphate or 2.4 g/L of Na2HPO4 for up to 12 hrs. The use of high citrate media was chosen to help lower the total amount of thiophosphate needed for growth when compared to regular M9 media (1). The media is prepared as follows: thiophosphate, 5.4 g/L; KCL 1.5 g/L; (NH4)2SO4, 2 g/L; sodium citrate 2H2O, 10 g/L. Adjust the pH to 7.5 and sterile filter the solution. Then add the following: MgSO4-7H2O, 0.2 g/L (sterilized separately as a conc. solution); glucose, 2 g/L sterilized separately by filtration). Glucose can also be sterilized by autoclaving separately. CaCl2 (11 mg/L) is also be added as needed.
To see if any morphological changes were occurring the bacteria were examined using bright field microscopy. […] To test whether this morphology was due to a nutritional deficiency K12 cells were grown in LB broth with 2.7 g of thiophosphate per liter.
In this media, filaments were detected by 8 hrs and by 2 hrs paired bacteria could be seen, as before with minimal media. In the 8 hr sample, however, the view was more mixed compared to that seen with minimal media, as both filamentous bacteria and some shorter and more normal appearing bacteria were observed.

[2] = test system: E. coli K12 and JM109 strains; assay: Morphological changes by bright field microscopy; settings: K12, semi-synthetic media
[3] = test system: E coli K12 bacteria; assay: Microarray analysis (Affymetrix E. coli Genome 2.0)
Procedure: as §1
Both Microarray and RNA seq analysis was performed. Total RNA was used for both studies. For microarray studies, raw Affymetrix CEL files (E. coli Genome 2.0) were normalized to produce probeset-level expression values for all probesets with Expression Console (version 1.4.1.46), using the Robust Multiarray Average (RMA) and Detection Above BackGround (DABG) (Irizarry R. A et al. 2003, Biostatistics 4(2): 249-64. doi:10.1093/biostatistics/4.2.249). The analysis was limited to 10,112 E. coli probesets interrogated by the array. Fold changes were computed using the R environment for statistical computing (version 2.15.1) by Boston University Microarray and Sequencing (CTSA grant #1UL1TR001430).

[4] = test system: Bacillus megaterium strain ATCC 15117; assay: AICA production/secretion in fermentation with thio-phosphate
Procedure: Bacillus megaterium was grown using a modified minimal media. In particular, the media contained: glucose, 60 g/L; KCL 1 g/L; MgSO4 0.4 g/L; peptone, 2 g/L; adenine, 0.25 g/L; NH4CI 8 g/L, urea, 3 g/L, calcium chloride, 0.5 g/L; as well as ferrous sulfate and manganese sulfate at 0.005 g/L. Thio-phosphate was added at levels between 2-6 g/L. For controls NaH2PO4 was add at 1 g/L.
Bacillus megaterium strain ATCC 15117 (U.S. Pat. No. 3,238,110 & 3,748,232) was used to examine the increased production of AICA using thio-phosphate. Cells were cultured at 26-30° C. for 4 days with 4 g/L of thio-phosphate or normal phosphate (1 g/L). […] The cells were pelleted, and the supernatant was acidified to pH 2 to help remove unwanted amino acids. The samples were then diluted with one volume of water and bound to activated charcoal with shaking for 2 hrs. (2 grams/20 ml) at room temp. The charcoal was collected on a filter with filtration and washed with 0.01 N HCl. AICA was then eluted with a solution of ethanol/ammonium hydroxide/water at a 1:1:2 ratio using a volume equivalent to the original supernatant. The samples were then separated and analyzed on Whatman chromatography paper using a solvent mixture of 50% butanol, 15% ethanol, and 35% water. The results indicated a ˜2× fold increase AICA per volume of cells.
Histidine and tryptophan were added to fermentation reactions to enhance AICA yield by blocking the endogenous synthesis of these amino acids. […] Fermentation reactions were typically initiated with 1.5 ml of overnight growth in nutrient broth which was then diluted into 50 ml of the reaction media. […] Despite the high activity, the growth of these cells was inhibited, almost in parallel with the amount of AICA secreted.

[5] = semi-synthetic media containing thiophosphate with amino acids added
[6] = microarray (value outside parentheses)
[7] = 4 g/L thio-phosphate vs normal phosphate
[8] = twice as many starter cells, 50 mg each of his and trp

OP(O)(O)=S [thio-phosphate]
morphology ([1]; K12, LB broth with 2.7 g of thiophosphate per liter, 12 hrs): Filamentous growth was not observed; also recorded: paired phenotype
morphology ([1]; K12, LB broth with 2.7 g of thiophosphate per liter, 12 hrs, listed as TP): paired phenotype
morphology ([1]; K12 and JM109, minimal thiophosphate media, 12 hrs): distinct filamentous morphology
morphology ([1]; K12 and JM109, minimal thiophosphate media, 12 hrs, listed as TP): filamentous phenotype
morphology ([1]; K12 and JM109, thiophosphate media, 2 hrs): appeared as pairs
growth [1, 5]: good growth
morphology [1, 5]: mixed with both long filamentous and shorter bacterial cells
time by which filaments were detected [2]: ≤ 8 h
time by which paired bacteria could be seen [2]: ≤ 2 h
average fold change of 19 genes with unstable mRNAs ([3]; half-lives less than or equal to 1.4 minutes): 1.0+/−2.8
Dxs transcript fold enhancement ([3]; microarray): 2.5 × fold
FabB transcript elevation ([3]; microarray): 3 ×
TesA transcript elevation ([3]; microarray): 4 ×
Udp transcript fold reduction ([3]; microarray): 3.2 × fold
Upp transcript increase ([3]; microarray): 2 ×
accA transcript elevation ([3]; microarray): 1.3
accC transcript elevation ([3]; microarray): 3.2
accD transcript elevation ([3]; microarray): 1.4
adk transcript fold elevation ([3]; microarray): 1.5 × fold
dusB transcript fold elevation ([3]; microarray): ≥ 3 × fold
infB transcript fold elevation ([3]; microarray): 3.1 × fold
ispD transcript fold enhancement ([3]; microarray): 2.5 × fold
other IPP/DMAPP synthesis gene transcripts (the others) fold enhancement ([3]; microarray): ~1.3 × fold
prsA transcript elevation ([3]; microarray): < 2 ×
pyrF transcript fold elevation ([3]; microarray): 3.7 × fold
rlmH transcript fold elevation ([3]; microarray): at least 3.4 × fold
rpoS transcript fold elevation ([3]; microarray): 3 × fold
tadA transcript fold elevation ([3]; microarray): ≥ 3 × fold
trmA transcript fold elevation ([3]; microarray): ≥ 3 × fold
ycih transcript fold elevation ([3]; microarray): 3.3 × fold
yqgf transcript fold elevation ([3]; microarray): at least 3.4 × fold
dacA transcript elevation [3, 6]: 3.6 × fold
ftsI transcript elevation [3, 6]: 1.6 ×
idtB transcript elevation [3, 6]: 2 ×
idtC transcript elevation [3, 6]: 5.2 ×
FabA, FabG, FabZ, FabI, FabF gene transcripts ([3]; microarray and RNA seq): elevated
tRNA synthetases average increase ([3]; microarray, 20 genes): 1.24 × fold
CspA transcript fold increase ([3]; microarray, vs control): 3.1 × fold
nusA transcript fold increase ([3]; microarray, vs control): 2.6 × fold
pgsA mRNA fold enhancement ([3]; platform not given): 1.9 × fold
plsB mRNA fold enhancement ([3]; platform not given): 1.9 × fold
pssA mRNA fold enhancement ([3]; platform not given): 1.9 × fold
average fold change for 10,110 transcripts ([3]; standard deviation 1.4): −0.1
average fold change of 23 mRNAs with half-lives greater than 10 minutes ([3]; standard deviation 2.44): 1.2
effect on cells by day 4 ([4]; 100 mg of histidine and tryptophan each per liter): cell lysis
growth recovery by day 4 ([4]; 4 g/L thio-phosphate): 60-100 % of controls
growth after 24 hrs [4, 7]: the same
growth recovered by the third day [4, 7]: normal or 60% of normal levels
fold increase AICA per volume of cells ([4]; 4 g/L thio-phosphate vs normal phosphate (1 g/L), 26-30° C., 4 days): ~2 × fold
AICA levels increased ([4]; per cell mass basis compared to normal phosphate containing culture media): 2 ×
cell specific yield of AICA [4, 8]: 5-6 × fold
growth of cells [4, 8]: inhibited
